Tested on: SEM cells
Experiment: cell viability relative to DMSO control; higher = less cytotoxic
Settings: 48 h
In short: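 In 1536-well plates, 5 μl of leukemia cells were seeded per well: 500 cells/well for NOMO1 or SEM and 1000 cells/well for P12-Ichikawa. Each line had first been adapted for at least four passages in each medium. Library compounds in DMSO were pin-dosed at 11 threefold concentrations between 47 μM and 0.79 nM, and CellTiter-Glo One luminescence was read after 48 h at 37°C. Viability is a per-plate percentage relative to DMSO wells, with cell-free wells as background.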

[1] = HPLM + 10% dialyzed FBS, 0.000781 µM
[2] = HPLM + 10% dialyzed FBS, 0.00234 µM
[3] = HPLM + 10% dialyzed FBS, 0.00702 µM
[4] = HPLM + 10% dialyzed FBS, 0.0211 µM
[5] = HPLM + 10% dialyzed FBS, 0.0632 µM
[6] = HPLM + 10% dialyzed FBS, 0.19 µM
[7] = HPLM + 10% dialyzed FBS, 0.569 µM
[8] = HPLM + 10% dialyzed FBS, 1.71 µM
[9] = HPLM + 10% dialyzed FBS, 5.12 µM
[10] = HPLM + 10% dialyzed FBS, 15.4 µM
[11] = HPLM + 10% dialyzed FBS, 46.1 µM
[12] = RPMI 5 mM glucose + 10% FBS, 0.000781 µM
[13] = RPMI 5 mM glucose + 10% FBS, 0.00234 µM
[14] = RPMI 5 mM glucose + 10% FBS, 0.00702 µM
[15] = RPMI 5 mM glucose + 10% FBS, 0.0211 µM
[16] = RPMI 5 mM glucose + 10% FBS, 0.0632 µM
[17] = RPMI 5 mM glucose + 10% FBS, 0.19 µM
[18] = RPMI 5 mM glucose + 10% FBS, 0.569 µM
[19] = RPMI 5 mM glucose + 10% FBS, 1.71 µM
[20] = RPMI 5 mM glucose + 10% FBS, 5.12 µM
[21] = RPMI 5 mM glucose + 10% FBS, 15.4 µM
[22] = RPMI 5 mM glucose + 10% FBS, 46.1 µM
[23] = RPMI 5 mM glucose + 10% dialyzed FBS, 0.000781 µM
[24] = RPMI 5 mM glucose + 10% dialyzed FBS, 0.00234 µM
[25] = RPMI 5 mM glucose + 10% dialyzed FBS, 0.00702 µM
[26] = RPMI 5 mM glucose + 10% dialyzed FBS, 0.0211 µM
[27] = RPMI 5 mM glucose + 10% dialyzed FBS, 0.0632 µM
[28] = RPMI 5 mM glucose + 10% dialyzed FBS, 0.19 µM
[29] = RPMI 5 mM glucose + 10% dialyzed FBS, 0.569 µM
[30] = RPMI 5 mM glucose + 10% dialyzed FBS, 1.71 µM
[31] = RPMI 5 mM glucose + 10% dialyzed FBS, 5.12 µM
[32] = RPMI 5 mM glucose + 10% dialyzed FBS, 15.4 µM
[33] = RPMI 5 mM glucose + 10% dialyzed FBS, 46.1 µM

Compound | cell viability [1] | cell viability [2] | cell viability [3] | cell viability [4] | cell viability [5] | cell viability [6] | cell viability [7] | cell viability [8] | cell viability [9] | cell viability [10] | cell viability [11] | cell viability [12] | cell viability [13] | cell viability [14] | cell viability [15] | cell viability [16] | cell viability [17] | cell viability [18] | cell viability [19] | cell viability [20] | cell viability [21] | cell viability [22] | cell viability [23] | cell viability [24] | cell viability [25] | cell viability [26] | cell viability [27] | cell viability [28] | cell viability [29] | cell viability [30] | cell viability [31] | cell viability [32] | cell viability [33]
Cn1c(Nc2ccc(C(F)(F)F)cc2)nc2cc(Oc3ccnc(-c4nc(C(F)(F)F)c[nH]4)c3)ccc21 | 97.1% | 114% | 116% | 96.8% | 127% | 115% | 109% | 96.2% | 59.6% | 55.1% | 24.8% | 111% | 109% | 124% | 94.8% | 136% | 117% | 122% | 98.2% | 53.4% | 44.2% | 12.7% | 108% | 118% | 134% | 102% | 128% | 130% | 116% | 112% | 55.3% | 48.6% | 18.1%
COc1cc2c(Oc3ccc(NC(=O)C4(C(=O)Nc5ccc(F)cc5)CC4)cc3F)ccnc2cc1OCCCN1CCOCC1 | 45.9% | 38.6% | 35.5% | 35.9% | 33.8% | 31.9% | 32.3% | 16.1% | 19.9% | 17.1% | 3.11% | 59.2% | 45.2% | 42.3% | 43.6% | 37.4% | 33.6% | 42.5% | 13.5% | 10.9% | 7.49% | 3.41% | 41.9% | 28.5% | 34.8% | 28.2% | 23.9% | 25.3% | 25.7% | 9.12% | 11.7% | 8.88% | 2.51%
COc1cc2c(Nc3ccc(Cl)c(Cl)c3F)ncnc2cc1OC[C@@H]1C[C@@H]2CN(C)C[C@@H]2C1 | 105% | 118% | 121% | 120% | 98.8% | 113% | 100% | 93.3% | 56% | 47% | 10.1% | 98% | 117% | 121% | 144% | 118% | 118% | 101% | 64.2% | 44.4% | 48% | 5.51% | 112% | 109% | 133% | 129% | 119% | 124% | 110% | 75.8% | 67% | 55.7% | 6.25%
CNC1[C@@H](O)C(O[C@@H]2C(O)C(O[C@H]3O[C@H]([C@@H](C)NC)CC[C@H]3N)[C@@H](N)C[C@H]2N)OC[C@]1(C)O (stereo partly specified) | 99.8% | 96.4% | 99.2% | 95.1% | 113% | 106% | 93.2% | 97.7% | 92.9% | 88.5% | 80.8% | 105% | 120% | 94.2% | 101% | 92.2% | 103% | 97.9% | 83.3% | 90.4% | 86.1% | 98% | 102% | 101% | 98.4% | 106% | 99.3% | 104% | 106% | 108% | 85.7% | 114% | 91.7%
CC(C)(C)C(=O)OCOP(=O)(COCCn1cnc2c(N)ncnc21)OCOC(=O)C(C)(C)C | 84.1% | 112% | 104% | 101% | 71.9% | 51% | 68.1% | 38.1% | 25.6% | 14.1% | 7.08% | 108% | 101% | 108% | 88% | 61.7% | 42.7% | 51.4% | 26.5% | 13% | 7.59% | 2.97% | 86.6% | 95.4% | 95.3% | 85.1% | 48.5% | 39.8% | 42.2% | 23.2% | 13% | 10.9% | 3.51%
C[S+](=O)([O-])N(Cc1ccco1)CC(O)Cn1c2ccccc2c2ccccc21 (stereo unspecified) | 106% | 88.5% | 100% | 100% | 99.5% | 98% | 92.8% | 97.6% | 55.4% | 56.5% | 18.5% | 115% | 113% | 127% | 119% | 122% | 116% | 106% | 109% | 63.3% | 59.1% | 10.7% | 91.8% | 99.5% | 108% | 96.7% | 102% | 106% | 91% | 78.4% | 46.3% | 35.9% | 8.62%
[NH2][Pt]([NH2])([Cl])[Cl] | 93.8% | 96% | 94.5% | 95.2% | 107% | 99.4% | 92.2% | 89.6% | 79.1% | 70.9% | 62.1% | 82.9% | 105% | 101% | 93.2% | 102% | 98.8% | 118% | 71% | 70.9% | 65.1% | 52.4% | 85% | 85.3% | 88.1% | 89.5% | 86.8% | 97.8% | 88.1% | 74.3% | 65.9% | 55.3% | 51.8%

Reference: the supplement of paper PMC11451515
